# Results published in ChEMBL document CHEMBL1201862, “PubChem BioAssay data set” (2004).
# The source made the active and inactive calls.
# What was measured:
# [1] = target: T1, Corticotropin-releasing factor receptor 2/Corticotropin-releasing factor-binding protein (Homo sapiens, UniProt P24387+Q13324); test: activators of CRF receptor 2 with binding protein – uHTS hits, confirmation (AID 602473); assay type: functional; settings: read-out: EC50_Mean
# T1 sequence (Q13324 whole entry): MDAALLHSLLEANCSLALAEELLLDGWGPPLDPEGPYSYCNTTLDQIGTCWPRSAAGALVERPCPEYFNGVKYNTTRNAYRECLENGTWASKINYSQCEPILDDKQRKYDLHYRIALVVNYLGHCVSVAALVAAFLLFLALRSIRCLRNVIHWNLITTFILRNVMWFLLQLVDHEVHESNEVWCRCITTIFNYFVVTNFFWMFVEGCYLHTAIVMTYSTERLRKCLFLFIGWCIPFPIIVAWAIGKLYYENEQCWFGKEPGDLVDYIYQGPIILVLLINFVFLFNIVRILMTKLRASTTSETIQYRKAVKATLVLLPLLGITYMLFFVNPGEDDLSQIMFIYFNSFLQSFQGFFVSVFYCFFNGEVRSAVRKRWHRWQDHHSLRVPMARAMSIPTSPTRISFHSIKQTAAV
# T1 sequence (P24387 whole entry): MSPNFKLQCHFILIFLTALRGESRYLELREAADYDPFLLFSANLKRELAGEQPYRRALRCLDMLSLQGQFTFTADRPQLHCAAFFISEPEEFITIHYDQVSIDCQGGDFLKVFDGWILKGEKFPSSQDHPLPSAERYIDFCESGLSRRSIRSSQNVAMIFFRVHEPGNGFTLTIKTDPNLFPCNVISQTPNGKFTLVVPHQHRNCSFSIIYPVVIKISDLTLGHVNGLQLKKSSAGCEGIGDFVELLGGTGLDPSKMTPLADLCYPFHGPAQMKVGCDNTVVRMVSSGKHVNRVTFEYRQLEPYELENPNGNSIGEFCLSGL
# [2] = target: T1, Corticotropin-releasing factor receptor 2/Corticotropin-releasing factor-binding protein; test: Dose Response confirmation of uHTS hits for small molecule antagonists of the CRF-binding protein and CRF-R2 receptor complex.; assay type: functional; settings: read-out: IC50_Mean
# [3] = target: T2, Heat shock factor protein 1 (Mus musculus, UniProt P38532); test: enhancement of HSF1-driven luciferase signal – cell-based, NIH3T3, luminescence, dose retest, confirmation (AID 435004); assay type: functional;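 also: stress induced by proteasome inhibitor MG132 added 30 min after compound; luciferase reporter driven by HSF1 response element in NIH3T3 cells; actives raise luminescence as potentiators of the MG132 stress response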
# T2 sequence (P38532 whole entry): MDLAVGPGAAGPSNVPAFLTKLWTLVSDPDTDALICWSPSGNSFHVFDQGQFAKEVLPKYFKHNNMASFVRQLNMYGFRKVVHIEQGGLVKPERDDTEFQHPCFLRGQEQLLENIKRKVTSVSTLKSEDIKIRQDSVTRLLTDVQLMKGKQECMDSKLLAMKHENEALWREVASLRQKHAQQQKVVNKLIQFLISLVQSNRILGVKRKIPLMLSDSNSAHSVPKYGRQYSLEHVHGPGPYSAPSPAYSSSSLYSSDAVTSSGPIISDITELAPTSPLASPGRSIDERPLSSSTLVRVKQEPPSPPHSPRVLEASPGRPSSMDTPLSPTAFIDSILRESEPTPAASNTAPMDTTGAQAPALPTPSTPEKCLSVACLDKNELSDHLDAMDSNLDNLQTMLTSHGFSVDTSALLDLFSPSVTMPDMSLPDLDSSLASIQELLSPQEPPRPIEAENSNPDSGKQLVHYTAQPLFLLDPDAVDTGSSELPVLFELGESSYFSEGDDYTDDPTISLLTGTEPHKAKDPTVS
# H9c2 = test: cells; assay type: functional, cell-based; settings: Rattus norvegicus, H9c2, Myocardium;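 also: confirmatory concentration-response retest of ultra-high-throughput screening hits for modulation of myocardial damage; cell death induced by hydrogen peroxide oxidative stress; compound pretreatment for 60 min then peroxide exposure for 2 h; potency is for protecting the cells against peroxide damage rather than for killing them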
# Cytochrome P450 2C9 = Cytochrome P450 2C9 (Homo sapiens, UniProt P11712)
# Cytochrome P450 2C19 = Cytochrome P450 2C19 (Homo sapiens, UniProt P33261); test: Cytochrome panel assay with activity outcomes. Panel member name: p450-cyp2c19 Compounds with AC50 equal or less than 10 uM are considered active; assay type: functional; settings: read-out: AC50
# [4] = target: T3, Replicative DNA helicase DnaB (Mycobacterium tuberculosis, UniProt P9WMR3); test: DnaB intein splicing inhibitors, dose response, biochemical, cell-free fluorescence (AID 449749); assay type: functional
# T3 sequence (P9WMR3 whole entry): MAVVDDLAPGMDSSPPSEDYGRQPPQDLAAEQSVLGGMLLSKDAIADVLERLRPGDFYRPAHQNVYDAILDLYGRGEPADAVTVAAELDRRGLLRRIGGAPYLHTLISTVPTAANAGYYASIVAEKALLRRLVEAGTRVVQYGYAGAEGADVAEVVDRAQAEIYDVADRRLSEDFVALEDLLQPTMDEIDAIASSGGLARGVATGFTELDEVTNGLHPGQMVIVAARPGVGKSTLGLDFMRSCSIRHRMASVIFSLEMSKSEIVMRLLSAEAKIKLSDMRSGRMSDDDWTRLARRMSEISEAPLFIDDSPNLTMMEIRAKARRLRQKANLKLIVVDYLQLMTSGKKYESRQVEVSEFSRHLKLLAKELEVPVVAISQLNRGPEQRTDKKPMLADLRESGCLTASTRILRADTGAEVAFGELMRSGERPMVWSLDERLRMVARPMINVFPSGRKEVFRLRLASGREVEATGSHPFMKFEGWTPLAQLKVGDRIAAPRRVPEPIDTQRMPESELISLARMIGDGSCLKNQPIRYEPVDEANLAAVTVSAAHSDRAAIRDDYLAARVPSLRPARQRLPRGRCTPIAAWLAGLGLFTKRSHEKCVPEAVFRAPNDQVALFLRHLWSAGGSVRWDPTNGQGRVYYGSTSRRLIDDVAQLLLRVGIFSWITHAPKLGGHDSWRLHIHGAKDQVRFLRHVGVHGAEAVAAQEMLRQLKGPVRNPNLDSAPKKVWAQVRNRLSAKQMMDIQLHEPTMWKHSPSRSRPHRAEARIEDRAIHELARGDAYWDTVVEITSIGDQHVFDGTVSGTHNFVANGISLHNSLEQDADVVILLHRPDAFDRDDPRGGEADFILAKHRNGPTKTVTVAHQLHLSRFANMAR
# Protein RecA = target: T4, Protein RecA (Mycobacterium tuberculosis, UniProt P9WHJ3); test: Fluorescence Cell-Free Homogeneous Dose Retest to Identify Inhibitors of RecA-Intein Splicing Activity. [Related pubchem assays (depositor defined):AID2097, AID2223, AID489010, AID492950]; assay type: functional
# T4 sequence (P9WHJ3 whole entry): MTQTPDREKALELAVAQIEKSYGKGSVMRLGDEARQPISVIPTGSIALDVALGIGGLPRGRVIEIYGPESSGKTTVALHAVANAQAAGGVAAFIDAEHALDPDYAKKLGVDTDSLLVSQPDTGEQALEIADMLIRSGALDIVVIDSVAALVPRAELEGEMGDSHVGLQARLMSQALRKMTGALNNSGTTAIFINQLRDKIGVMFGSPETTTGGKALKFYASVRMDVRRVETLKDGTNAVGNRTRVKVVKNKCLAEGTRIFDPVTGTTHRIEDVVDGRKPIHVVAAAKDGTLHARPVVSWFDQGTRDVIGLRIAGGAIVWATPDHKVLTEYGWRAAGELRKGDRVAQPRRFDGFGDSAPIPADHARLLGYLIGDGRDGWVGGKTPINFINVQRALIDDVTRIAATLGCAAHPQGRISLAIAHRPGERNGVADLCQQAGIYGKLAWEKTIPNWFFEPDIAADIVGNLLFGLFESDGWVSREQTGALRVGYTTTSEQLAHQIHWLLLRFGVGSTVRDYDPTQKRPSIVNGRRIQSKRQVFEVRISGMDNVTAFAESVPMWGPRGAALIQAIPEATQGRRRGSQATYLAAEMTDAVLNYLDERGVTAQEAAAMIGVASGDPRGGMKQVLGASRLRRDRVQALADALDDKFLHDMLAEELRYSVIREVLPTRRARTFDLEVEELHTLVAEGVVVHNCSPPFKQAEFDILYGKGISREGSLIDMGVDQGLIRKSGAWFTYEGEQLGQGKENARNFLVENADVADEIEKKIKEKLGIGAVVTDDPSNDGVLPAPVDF
# [5] = Luminescence Cell-Based Dose Confirmation HTS to Identify Activators of 5'UTR Stem-Loop Driven Alpha-Synuclein mRNA Translation in H4 Neuroglioblastoma Cells. [Related pubchem assays: 1829 (Project Summary), 1814 (Primary HTS)]; assay type: functional
# H4 = test: Luminescence Cell-Based Dose Response HTS to Identify Activators of 5'UTR Stem-Loop Driven Prion Protein mRNA Translation in H4 Neuroglioblastoma Cells. [Related pubchem assays: 1829 (Project Summary), 1814 (Primary HTS)]; assay type: functional; settings: Homo sapiens
# [6] = Luminescence Cell-Based Dose Response HTS to Identify Activators of Luciferase Translation or Activity in H4 […] Cells. [Related pubchem assays: 1829 (Project Summary), 1814 (Primary HTS)]; assay type: functional
# [7] = Luminescence Cell-Based Dose Retest to Confirm Inhibitors of Cancer Stem Cells. [Related pubchem assays (depositor defined):AID2717, AID2721]; assay type: functional; settings: Homo sapiens
# [8] = viability of HCT116 lacking mutant beta-catenin – cell-based, human colon tumor, dose response (AID 1045); assay type: functional;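 also: HCT116 colon tumor cells with beta catenin knocked out; cells exposed to compound for 60 hours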
# [9] = viability of PTEN-deleted HCT116 cells – cell-based, HCT116 PTEN knockout, dose response (AID 1047); assay type: functional;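 also: HCT116 colon tumor cells with PTEN knocked out; cells exposed to compound for 60 hours before readout; potency for loss of cell viability measured by luminescence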
# Sequence of Cytochrome P450 2C19 (P33261 whole entry): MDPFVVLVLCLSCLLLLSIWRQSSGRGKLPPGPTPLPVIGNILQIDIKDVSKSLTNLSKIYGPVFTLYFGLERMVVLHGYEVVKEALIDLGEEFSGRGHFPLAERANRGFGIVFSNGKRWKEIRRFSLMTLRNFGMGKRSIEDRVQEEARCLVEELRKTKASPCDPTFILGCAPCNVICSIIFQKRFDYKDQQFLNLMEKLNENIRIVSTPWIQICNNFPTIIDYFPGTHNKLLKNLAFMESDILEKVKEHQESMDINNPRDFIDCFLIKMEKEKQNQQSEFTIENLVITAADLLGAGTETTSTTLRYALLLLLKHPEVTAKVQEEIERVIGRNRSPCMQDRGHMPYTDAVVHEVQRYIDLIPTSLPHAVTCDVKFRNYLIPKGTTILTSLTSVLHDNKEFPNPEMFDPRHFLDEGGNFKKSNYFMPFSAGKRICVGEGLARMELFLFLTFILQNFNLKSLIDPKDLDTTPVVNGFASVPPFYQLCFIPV
# Sequence of Cytochrome P450 2C9 (P11712 whole entry): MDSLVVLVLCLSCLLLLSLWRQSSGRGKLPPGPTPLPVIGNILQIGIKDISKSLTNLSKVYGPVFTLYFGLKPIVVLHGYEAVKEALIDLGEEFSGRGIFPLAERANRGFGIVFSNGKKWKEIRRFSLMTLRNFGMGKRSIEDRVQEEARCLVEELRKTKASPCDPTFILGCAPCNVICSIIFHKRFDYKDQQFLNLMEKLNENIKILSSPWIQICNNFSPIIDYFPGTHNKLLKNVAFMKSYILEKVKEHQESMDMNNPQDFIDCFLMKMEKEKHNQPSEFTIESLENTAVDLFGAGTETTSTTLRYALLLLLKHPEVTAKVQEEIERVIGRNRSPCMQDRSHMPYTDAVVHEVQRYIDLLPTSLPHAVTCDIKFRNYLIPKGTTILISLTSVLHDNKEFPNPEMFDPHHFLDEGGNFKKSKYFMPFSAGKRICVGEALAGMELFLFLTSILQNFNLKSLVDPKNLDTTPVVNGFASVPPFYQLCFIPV
compound,measurement,setting,value
COC(=O)c1ccc(Cc2ccccc2)o1,EC50,[1],> 53 µM (inactive)
same,IC50,[2],> 47.1 µM (inactive)
CCOC(=O)c1nnn(CC(=O)N2N=C(c3ccccc3)CC2c2ccccc2)c1C(=O)OCC (stereo not given),EC50,[1],> 53 µM (inactive)
same,IC50,[2],> 47.1 µM (inactive)
Oc1nc(N2CCN(c3ccccc3)CC2)nc2c1CCC2,EC50,[3],> 260 µM (inactive)
same,IC50,H9c2,54.4 µM (inactive)
O=[N+]([O-])C(/C=C(\Cl)[N+](=O)[O-])=C1N(Cc2ccc(Cl)nc2)CCN1Cc1ccc(Cl)nc1,AC50,Cytochrome P450 2C9,12.6 µM (inconclusive)
same,AC50,Cytochrome P450 2C19,31.6 µM (inconclusive)
same,AC50,[4],11.4 µM (active)
same,EC50,Protein RecA,8.49 µM (active)
COc1ccc(S(=O)(=O)N(CCCN2CCCC2=O)Cc2cc3cc(C)c(C)cc3nc2O)cc1,IC50,H9c2,> 79 µM (inactive)
COCCn1c(-c2ccsc2)nc2c1c(=O)[nH]c(=O)n2CC(C)C,EC50,[1],> 53 µM (inactive)
same,IC50,[2],> 47.1 µM (inactive)
O=C(O)c1nn(CC(=O)N2CCN(c3ccccc3)CC2)c(=O)c2ccccc12,IC50,H9c2,31 µM (inactive)
COc1ccc(OCc2cc(C(=O)N3CCCC(OC)C3)no2)c2ccccc12 (stereo not given),AC50,[4],15 µM (active)
same,EC50,Protein RecA,3.9 µM (active)
CC(=O)c1c(C)[nH]c(C(=O)CSc2ccc(F)cc2)c1C,EC50,[5],20 µM (active)
same,EC50,H4,71.1 µM (active)
same,EC50,[6],30.2 µM (active)
Cc1nn(-c2ccc(N3CCCCC3)nn2)c(C)c1CCC(=O)Nc1cccc(F)c1,EC50,[5],20.8 µM (active)
same,EC50,[6],2.66 µM (active)
O=C(Oc1ccccc1N1C(=O)CCC1=O)c1ccco1,AC50,[4],6.7 µM (active)
same,EC50,Protein RecA,14.8 µM (active)
CCOC(=O)c1c(C)sc2c1N(C(=O)CCl)c1cc(Cl)ccc1S2,AC50,[4],3.1 µM (active)
same,AC50,[7],2.22 µM (active)
same,EC50,Protein RecA,0.506 µM (active)
CC1=C(C(=O)OCc2ccccc2)C(/C=C/c2ccccc2)N2C(=O)CCSC2=N1 (stereo not given),EC50,[1],> 53 µM (inactive)
same,IC50,[2],> 47.1 µM (inactive)
CCCCN1CC(=O)C(c2nc3ccccc3s2)=C1N,EC50,[5],13.8 µM (active)
same,EC50,H4,> 120 µM (not active)
same,EC50,[6],30.8 µM (active)
Cc1c(C=O)c2ccccn2c1C(=O)c1ccc(Cl)c([N+](=O)[O-])c1,IC50,H9c2,> 79 µM (inactive)
C=CCNc1nc(-c2ccc(OC)cc2OC)cs1,EC50,[5],0.287 µM (active)
same,EC50,H4,53.9 µM (active)
same,EC50,[6],26.8 µM (active)
O=c1cc(-c2ccc([N+](=O)[O-])cc2)c2ccc(O)cc2o1,IC50,H9c2,> 79 µM (inactive)
CC(C)(C)c1nn(-c2ccccc2)c2nc(O)c(CNCc3ccco3)cc12,EC50,[8],9.2 µM (active)
same,EC50,[9],7.45 µM (active)
same,IC50,H9c2,> 79 µM (inactive)
COc1ccc(/C=C2\SC(=S)N(Cc3cccnc3)C2=O)cc1C,EC50,[5],38 µM (active)
same,EC50,H4,20.1 µM (active)
same,EC50,[6],11.1 µM (active)
O=C(COc1cccc(NC(=O)c2cccc([N+](=O)[O-])c2)c1)c1ccc(F)cc1,IC50,H9c2,> 79 µM (inactive)
CCCCNc1nc(CC)c2c(c1C#N)CCCC2,EC50,[1],> 53 µM (inactive)
same,IC50,[2],> 47.1 µM (inactive)
Cc1ccc(C(=O)COC(=O)CCN2C(=O)C3C4C=CC(C5CC45)C3C2=O)cc1 (stereo not given),EC50,[1],> 53 µM (inactive)
same,IC50,[2],> 47.1 µM (inactive)
COC(=O)c1c(C)[nH]c(C(=O)COc2ccc3ccc(=O)oc3c2)c1C,IC50,H9c2,> 79 µM (inactive)
CCOC(=O)c1cccc(NS(=O)(=O)Cc2ccccc2)c1,EC50,[1],> 53 µM (inactive)
same,IC50,[2],> 47.1 µM (inactive)
CC1CCCC(C)N1C(=O)COC(=O)c1cccs1 (stereo not given),EC50,[1],> 53 µM (inactive)
same,IC50,[2],> 47.1 µM (inactive)
CC(=O)C12CC(C)=C(C)CC1CC1C3CCC4=CC(=O)CCC4(C)C3CCC12C (stereo not given),AC50,[4],3.05 µM (active)
same,AC50,[7],5.78 µM (active)
same,EC50,Protein RecA,289 µM (inconclusive)
CC1(NC(=O)CCc2nc(O)c3ccccc3n2)CCS(=O)(=O)C1 (stereo not given),IC50,H9c2,> 79 µM (inactive)
COC(=O)c1ccc2nc3c(cc2c1)[C@@H]1CCN2C(=O)CCC[C@H](C3)[C@H]12,EC50,[1],> 53 µM (inactive)
same,IC50,[2],> 47.1 µM (inactive)
O=C(N/N=C/c1ccccn1)c1cc(C2CC2)nc2ccccc12,IC50,H9c2,> 79 µM (inactive)
CCSc1nnc(N)s1,IC50,H9c2,> 79 µM (inactive)
